# Measurements published in US20250333383A1, “N-OXIDE COMPOUNDS AND USE THEREOF” (SK BIOPHARMACEUTICALS CO., LTD., priority 2022, published 2025).
# Target: T1, human Nav1.7 channels (Homo sapiens, UniProt Q15858)
# T1 construct: host or cells: HEK293
# Assay: hNav1.7 channel assay, whole cell patch clamp, two-pulse protocol
# Format: cell-based
# Settings: TP2 (inactivated phase inhibition), HEK293 cells stably expressing human Nav1.7, read-out: Inhibition activity: percent inhibition on the inactivated state of hNav1.7
# Source text: Whole cell patch clamp technique was used to investigate the inhibitory effects of the compound of Examples on human Nav1.7 channels, stably expressed in HEK293 cells. Human Nav1.7 recombinant cell line (CYL3011-precisION) was purchased from Eurofins.
# Two-pulse protocol was used every 10 seconds to assess the state-dependent inhibition by Examples. From the holding potential of −90 mV, pre-pulse (200 ms at −120 mV) was followed by test pulse1 ([…]), then test pulse2 (TP2: 20 ms at 0 mV) was evoked after inter-pulse (20 ms at −100 mV).
# Peak current amplitudes were measured for test pulses TP1 (resting phase inhibition) and TP2 (inactivated phase inhibition). The following solutions were used for screening assay: External (mM): 145 NaCl, 1 MgCl2, 1.8 CaCl2, 10 Hepes, 5 Glucose, pH 7.4, 300 mOsm; Internal (mM): 120 CsF, 10 NaCl, 10 EGTA, 10 HEPES, pH 7.2, 290 mOsm.
# The inhibition on the inactivated state of hNav1.7 was calculated as: % inhibition (inactivation state)=(1−(ITP2, TA/ITP2, Control)×100%, where ITP2 (the inward peak Na+ currents), Control and ITP2, TA were elicited by the TP2 in control (vehicle only) and in the presence of a test article (TA) indicating Examples, respectively.
# T1 sequence (Q15858 whole entry): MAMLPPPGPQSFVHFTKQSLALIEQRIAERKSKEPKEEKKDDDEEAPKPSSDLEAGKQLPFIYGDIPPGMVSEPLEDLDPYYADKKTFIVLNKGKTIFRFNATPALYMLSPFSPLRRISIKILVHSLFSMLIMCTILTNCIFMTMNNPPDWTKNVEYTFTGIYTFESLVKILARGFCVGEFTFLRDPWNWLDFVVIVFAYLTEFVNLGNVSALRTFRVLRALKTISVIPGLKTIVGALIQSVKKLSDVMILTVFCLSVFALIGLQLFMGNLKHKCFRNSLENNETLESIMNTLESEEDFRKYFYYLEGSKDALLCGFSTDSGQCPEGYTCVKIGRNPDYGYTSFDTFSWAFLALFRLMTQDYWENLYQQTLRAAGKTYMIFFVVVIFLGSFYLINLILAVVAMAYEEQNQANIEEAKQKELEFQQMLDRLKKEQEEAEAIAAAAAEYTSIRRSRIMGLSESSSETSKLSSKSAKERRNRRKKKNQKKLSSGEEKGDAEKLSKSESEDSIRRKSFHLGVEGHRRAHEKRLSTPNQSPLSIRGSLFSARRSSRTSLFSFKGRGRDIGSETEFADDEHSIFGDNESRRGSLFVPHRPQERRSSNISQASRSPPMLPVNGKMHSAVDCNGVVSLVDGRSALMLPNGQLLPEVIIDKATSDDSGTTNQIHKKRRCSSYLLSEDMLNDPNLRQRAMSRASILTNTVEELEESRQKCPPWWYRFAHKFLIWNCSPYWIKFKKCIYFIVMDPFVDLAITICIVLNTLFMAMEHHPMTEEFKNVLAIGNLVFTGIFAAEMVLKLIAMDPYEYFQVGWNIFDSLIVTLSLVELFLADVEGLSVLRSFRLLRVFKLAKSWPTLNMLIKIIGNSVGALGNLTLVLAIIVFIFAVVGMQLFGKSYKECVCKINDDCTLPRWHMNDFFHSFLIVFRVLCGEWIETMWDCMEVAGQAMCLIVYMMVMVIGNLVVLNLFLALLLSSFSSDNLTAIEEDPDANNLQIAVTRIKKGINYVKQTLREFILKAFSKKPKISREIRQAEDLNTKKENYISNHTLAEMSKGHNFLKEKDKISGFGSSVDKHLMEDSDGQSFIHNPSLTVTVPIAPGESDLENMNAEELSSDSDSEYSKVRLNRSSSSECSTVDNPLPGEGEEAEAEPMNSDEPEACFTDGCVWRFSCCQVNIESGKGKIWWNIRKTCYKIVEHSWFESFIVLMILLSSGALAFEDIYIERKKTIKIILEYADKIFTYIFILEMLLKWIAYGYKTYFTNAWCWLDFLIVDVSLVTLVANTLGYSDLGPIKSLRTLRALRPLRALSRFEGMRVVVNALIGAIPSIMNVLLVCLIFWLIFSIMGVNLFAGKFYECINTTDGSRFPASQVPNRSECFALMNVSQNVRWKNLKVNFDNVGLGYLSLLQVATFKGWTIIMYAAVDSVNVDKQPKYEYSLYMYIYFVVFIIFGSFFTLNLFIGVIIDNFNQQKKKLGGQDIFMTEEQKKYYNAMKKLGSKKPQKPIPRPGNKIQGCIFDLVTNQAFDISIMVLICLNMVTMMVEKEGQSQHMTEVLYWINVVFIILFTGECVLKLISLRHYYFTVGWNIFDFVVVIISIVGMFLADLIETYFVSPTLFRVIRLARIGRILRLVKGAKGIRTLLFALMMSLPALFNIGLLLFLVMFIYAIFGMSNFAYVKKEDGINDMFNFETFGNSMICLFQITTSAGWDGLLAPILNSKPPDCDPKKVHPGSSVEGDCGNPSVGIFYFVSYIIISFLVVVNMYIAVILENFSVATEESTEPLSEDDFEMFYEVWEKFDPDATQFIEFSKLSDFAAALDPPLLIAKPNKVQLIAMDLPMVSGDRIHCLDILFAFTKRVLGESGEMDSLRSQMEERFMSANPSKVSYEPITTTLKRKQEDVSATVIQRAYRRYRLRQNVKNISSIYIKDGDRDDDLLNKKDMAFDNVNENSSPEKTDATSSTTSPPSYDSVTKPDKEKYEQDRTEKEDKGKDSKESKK
row,SMILES,inhibition at 10 µM [%]
1,"O=C(NCc1cccc[n+]1[O-])c1cccc(-c2ccc(C(F)(F)F)cc2)c1 [Example 1, N-[(1-oxidopyridin-1-ium-2-yl)methyl]-3-[4-(trifluoromethyl)phenyl]benzamide]",70 to 100
2,"O=C(NCc1cccc[n+]1[O-])c1cccc(-c2cccc(Cl)c2)c1 [Example 4, 3-(3-chlorophenyl)-N-[(1-oxidopyridin-1-ium-2-yl)methyl]benzamide]",40 to 70
3,"O=C(NCc1cccc[n+]1[O-])c1cccc(-c2cccc(C(F)(F)F)c2)c1 [Example 5, N-[(1-oxidopyridin-1-ium-2-yl)methyl]-3-[3-(trifluoromethyl)phenyl]benzamide]",40 to 70
4,"O=C(NCc1cccc[n+]1[O-])c1cccc(-c2ccc(Cl)c(Cl)c2)c1 [Example 6, 3-(3,4-dichlorophenyl)-N-[(1-oxidopyridin-1-ium-2-yl)methyl]benzamide]",70 to 100
5,"O=C(NCc1cccc[n+]1[O-])c1cccc(-c2cc(Cl)cc(Cl)c2)c1 [Example 7, 3-(3,5-dichlorophenyl)-N-[(1-oxidopyridin-1-ium-2-yl)methyl]benzamide]",40 to 70
6,"O=C(NCc1cccc[n+]1[O-])c1cccc(-c2cccc(OC(F)(F)F)c2)c1 [Example 8, N-[(1-oxidopyridin-1-ium-2-yl)methyl]-3-[3-(trifluoromethoxy)phenyl]benzamide]",40 to 70
7,"O=C(NCc1cccc[n+]1[O-])c1cccc(-c2ccc(Cl)cc2Cl)c1 [Example 9, 3-(2,4-dichlorophenyl)-N-[(1-oxidopyridin-1-ium-2-yl)methyl]benzamide]",70 to 100
8,"O=C(NCc1cccc[n+]1[O-])c1cccc(-c2cc(Cl)ccc2Cl)c1 [Example 10, 3-(2,5-dichlorophenyl)-N-[(1-oxidopyridin-1-ium-2-yl)methyl]benzamide]",40 to 70
9,"O=C(NCc1cccc[n+]1[O-])c1cccc(-c2ccc(C(F)(F)F)cc2C(F)(F)F)c1 [Example 11, 3-[2,4-bis(trifluoromethyl)phenyl]-N-[(1-oxidopyridin-1-ium-2-yl)methyl]benzamide]",70 to 100
10,"O=C(NCc1cccc[n+]1[O-])c1cccc(-c2ccccc2)c1 [Example 12, N-[(1-oxidopyridin-1-ium-2-yl)methyl]-3-phenyl-benzamide]",40 to 70
11,"CC(C)(C)c1ccc(-c2cccc(C(=O)NCc3cccc[n+]3[O-])c2)cc1 [Example 13, 3-(4-tert-butylphenyl)-N-[(1-oxidopyridin-1-ium-2-yl)methyl]benzamide]",40 to 70
12,"Cc1cc(Cl)ccc1-c1cccc(C(=O)NCc2cccc[n+]2[O-])c1 [Example 15, 3-(4-chloro-2-methyl-phenyl)-N-[(1-oxidopyridin-1-ium-2-yl)methyl]benzamide]",40 to 70
13,"O=C(NCc1cccc[n+]1[O-])c1cccc(-c2ccc(C(F)(F)F)cc2F)c1 [Example 16, 3-[2-fluoro-4-(trifluoromethyl)phenyl]-N-[(1-oxidopyridin-1-ium-2-yl)methyl]benzamide]",40 to 70
14,"O=C(NCc1cccc[n+]1[O-])c1cccc(-c2ccc(F)c(Cl)c2)c1 [Example 17, 3-(3-chloro-4-fluoro-phenyl)-N-[(1-oxidopyridin-1-ium-2-yl)methyl]benzamide]",40 to 70
15,"O=C(NCc1cccc[n+]1[O-])c1cccc(-c2ccc(F)cc2)c1 [Example 18, 3-(4-fluorophenyl)-N-[(1-oxidopyridin-1-ium-2-yl)methyl]benzamide]",40 to 70
16,"O=C(NCc1cccc[n+]1[O-])c1cccc(-c2ccccc2Cl)c1 [Example 20, 3-(2-chlorophenyl)-N-[(1-oxidopyridin-1-ium-2-yl)methyl]benzamide]",40 to 70
17,"O=C(NCc1cccc[n+]1[O-])c1cccc(-c2ccccc2C(F)(F)F)c1 [Example 21, N-[(1-oxidopyridin-1-ium-2-yl)methyl]-3-[2-(trifluoromethyl)phenyl]benzamide]",40 to 70
